Test: Anti-oxidation: DPPH free radical scavenging
Conditions: positive control at 400 μg/ml
Protocol: The antioxidant activity was evaluated by measuring the ability of scavenging a free radical, DPPH (1,1-diphenyl-2-picrylhydrazyl). DPPH, a radical with a color, was used to directly determine the radical scavenging ability of the sample.
50 μl of each sample of Examples 1 to 13 and Comparative Examples 1 to 5 was mixed with 1 ml of a 100 μM DPPH solution. The resultant mixture was subjected to reaction and incubation at 20° C. (room temperature) at 30 minutes. Then, the amount of the remaining DPPH was determined through the absorbance measurement at 517 nm.
Upon completion of the reaction, the free radical scavenging activity (%) of the sample was calculated according to Equation 3 below. In this regard, the positive control was 400 μg/ml of ascorbic acid, and the blank was purified water. Radical Scavenging Ability (%)={1−(absorbance of sample-added group/absorbance of sample-free group)×100} [Equation 3]

O=C1O[C@H]([C@@H](O)CO)C(O)=C1O [Ascorbic acid]
Free radical scavenging ability: 80.7%

From US11975095B2, “Callus lysate comprising high content of callus metabolite and preparation method thereof” (BIOSPECTRUM, INC., priority 2020, dated 2024)
